Laboratory results from ChEMBL document CHEMBL1201862, “PubChem BioAssay data set” (2004).
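Interpolation was linear, between the two tested concentrations surrounding the appropriate level; five concentrations were tested over 48 hours in 96-well plates. GI50 is the concentration that inhibits growth by half.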 Calls of active or inactive are those of the source. No stated cut-off is given here; in the data, active = GI50 up to about 1.1 µM and inactive = higher.

Legend:
Assay in all cases: DTP human tumour cell line panel, 48 h
A549 = test system: A549
U-251 = test system: U-251
Hs-578T = test system: Hs-578T
DU-145 = test system: DU-145
SK-MEL-2 = test system: SK-MEL-2
SNB-78 = test system: SNB-78
NCI-H522 = test system: NCI-H522
SF-539 = test system: SF-539
K562 = test system: K562
OVCAR-4 = test system: OVCAR-4
Malme-3M = test system: Malme-3M
HCC 2998 = test system: HCC 2998
RPMI-8226 = test system: RPMI-8226
M19-MEL = test system: M19-MEL
SK-OV-3 = test system: SK-OV-3
IGROV-1 = test system: IGROV-1
SK-MEL-5 = test system: SK-MEL-5
HL-60 = test system: HL-60
XF498 = test system: XF498
EKVX = test system: EKVX

Structure (SMILES): CC(/C=C/C=C\C=C\C=C(/C)C(=O)NC(C)CO)=C\C(C)C(O)/C(C)=C/C(C)CCc1ccccc1 (stereo unspecified)
- GI50 (A549): 4.05 µM (inactive)
- GI50 (U-251): 14.9 µM (inactive)
- GI50 (Hs-578T): 19.3 µM (inactive)
- GI50 (DU-145): 13.8 µM (inactive)
- GI50 (SK-MEL-2): 13.2 µM (inactive)
- GI50 (SNB-78): 8.04 µM (inactive)
- GI50 (NCI-H522): 2.77 µM (inactive)
- GI50 (SF-539): 14.1 µM (inactive)
- GI50 (K562): 0.364 µM (active)
- GI50 (OVCAR-4): 12.4 µM (inactive)
- GI50 (Malme-3M): 6.64 µM (inactive)
- GI50 (HCC 2998): 7.59 µM (inactive)
- GI50 (RPMI-8226): 4.14 µM (inactive)
- GI50 (M19-MEL): 5.15 µM (inactive)
- GI50 (SK-OV-3): 16.4 µM (inactive)
- GI50 (IGROV-1): 11.1 µM (inactive)
- GI50 (SK-MEL-5): 0.198 µM (active)
- GI50 (HL-60): 5.02 µM (inactive)
- GI50 (XF498): 7.71 µM (inactive)
- GI50 (EKVX): 4.73 µM (inactive)

Structure (SMILES): CCCCCCCCCCCCCCCCCCN(C)C(COC)COP(=O)([O-])OCC[N+](C)(C)C (stereo unspecified)
- GI50 (A549): 6.68 µM (inactive)
- GI50 (U-251): 1.97 µM (inactive)
- GI50 (Hs-578T): 3.19 µM (inactive)
- GI50 (DU-145): 10.1 µM (inactive)
- GI50 (SK-MEL-2): 18.7 µM (inactive)
- GI50 (SNB-78): 4.5 µM (inactive)
- GI50 (NCI-H522): 2.69 µM (inactive)
- GI50 (SF-539): 7.01 µM (inactive)
- GI50 (K562): 11.8 µM (inactive)
- GI50 (OVCAR-4): 3.69 µM (inactive)
- GI50 (Malme-3M): 14.9 µM (inactive)
- GI50 (HCC 2998): 1.66 µM (inactive)
- GI50 (RPMI-8226): 1.83 µM (inactive)
- GI50 (M19-MEL): 3.25 µM (inactive)
- GI50 (SK-OV-3): 11.2 µM (inactive)
- GI50 (IGROV-1): 1.3 µM (inactive)
- GI50 (SK-MEL-5): 12.9 µM (inactive)
- GI50 (HL-60): 1.48 µM (inactive)
- GI50 (XF498): 18.6 µM (inactive)
- GI50 (EKVX): 17.5 µM (inactive)

Structure (SMILES): N/N=C1\C(=O)N(C2CCCCC2)C(=O)C1C(=O)NC1CCCCC1 (stereo unspecified)
- GI50 (A549): > 100 µM (inactive)
- GI50 (U-251): > 100 µM (inactive)
- GI50 (SK-MEL-2): 28.9 µM (inactive)
- GI50 (SNB-78): 43.1 µM (inactive)
- GI50 (NCI-H522): > 100 µM (inactive)
- GI50 (SF-539): > 100 µM (inactive)
- GI50 (K562): > 100 µM (inactive)
- GI50 (OVCAR-4): > 100 µM (inactive)
- GI50 (Malme-3M): > 100 µM (inactive)
- GI50 (HCC 2998): > 100 µM (inactive)
- GI50 (RPMI-8226): > 100 µM (inactive)
- GI50 (M19-MEL): > 100 µM (inactive)
- GI50 (SK-OV-3): 47.5 µM (inactive)
- GI50 (IGROV-1): > 100 µM (inactive)
- GI50 (SK-MEL-5): 33.7 µM (inactive)
- GI50 (HL-60): 26.2 µM (inactive)
- GI50 (XF498): > 100 µM (inactive)
- GI50 (EKVX): > 100 µM (inactive)

Structure (SMILES): COC1=CC(=O)[C@H]2[C@H](C)C(c3ccccc3)[C@@]2(C)C1=O (stereo partly specified)
- GI50 (A549): > 100 µM (inactive)
- GI50 (U-251): > 100 µM (inactive)
- GI50 (SK-MEL-2): > 100 µM (inactive)
- GI50 (SNB-78): > 100 µM (inactive)
- GI50 (NCI-H522): > 100 µM (inactive)
- GI50 (SF-539): > 100 µM (inactive)
- GI50 (K562): > 100 µM (inactive)
- GI50 (OVCAR-4): > 100 µM (inactive)
- GI50 (Malme-3M): > 100 µM (inactive)
- GI50 (HCC 2998): > 100 µM (inactive)
- GI50 (RPMI-8226): > 100 µM (inactive)
- GI50 (M19-MEL): > 100 µM (inactive)
- GI50 (SK-OV-3): > 100 µM (inactive)
- GI50 (IGROV-1): > 100 µM (inactive)
- GI50 (SK-MEL-5): > 100 µM (inactive)
- GI50 (HL-60): > 100 µM (inactive)
- GI50 (XF498): > 100 µM (inactive)
- GI50 (EKVX): > 100 µM (inactive)
